In the Kinase Knowledgebase extract (Sharma et al. 2016):
Blank lines part the entries; values can stand above or below the compound they belong to. Numbered stars: 1 amine (or outer) side, 2 acyl side, 3 side chain; on linkers, the order of the positions; unused ones are H or OH. Square brackets hold non-standard residues; d marks the D form. Residues, ends and D or L forms follow the SMILES beside them. Peptide text beside a SMILES is read from it. ξ: configuration not given here. *: point of attachment. X1 = CC(=O)C(=O)CCc1ccc(CC(N[*:1])C(=O)[*:2])cc1; Ile(3ξ) = CCC(C)[C@H](N)C(=O)O

Key:
[1] = biological target: EGFR (UniProt P00533)
Sequence of EGFR (P00533 whole entry, looked up): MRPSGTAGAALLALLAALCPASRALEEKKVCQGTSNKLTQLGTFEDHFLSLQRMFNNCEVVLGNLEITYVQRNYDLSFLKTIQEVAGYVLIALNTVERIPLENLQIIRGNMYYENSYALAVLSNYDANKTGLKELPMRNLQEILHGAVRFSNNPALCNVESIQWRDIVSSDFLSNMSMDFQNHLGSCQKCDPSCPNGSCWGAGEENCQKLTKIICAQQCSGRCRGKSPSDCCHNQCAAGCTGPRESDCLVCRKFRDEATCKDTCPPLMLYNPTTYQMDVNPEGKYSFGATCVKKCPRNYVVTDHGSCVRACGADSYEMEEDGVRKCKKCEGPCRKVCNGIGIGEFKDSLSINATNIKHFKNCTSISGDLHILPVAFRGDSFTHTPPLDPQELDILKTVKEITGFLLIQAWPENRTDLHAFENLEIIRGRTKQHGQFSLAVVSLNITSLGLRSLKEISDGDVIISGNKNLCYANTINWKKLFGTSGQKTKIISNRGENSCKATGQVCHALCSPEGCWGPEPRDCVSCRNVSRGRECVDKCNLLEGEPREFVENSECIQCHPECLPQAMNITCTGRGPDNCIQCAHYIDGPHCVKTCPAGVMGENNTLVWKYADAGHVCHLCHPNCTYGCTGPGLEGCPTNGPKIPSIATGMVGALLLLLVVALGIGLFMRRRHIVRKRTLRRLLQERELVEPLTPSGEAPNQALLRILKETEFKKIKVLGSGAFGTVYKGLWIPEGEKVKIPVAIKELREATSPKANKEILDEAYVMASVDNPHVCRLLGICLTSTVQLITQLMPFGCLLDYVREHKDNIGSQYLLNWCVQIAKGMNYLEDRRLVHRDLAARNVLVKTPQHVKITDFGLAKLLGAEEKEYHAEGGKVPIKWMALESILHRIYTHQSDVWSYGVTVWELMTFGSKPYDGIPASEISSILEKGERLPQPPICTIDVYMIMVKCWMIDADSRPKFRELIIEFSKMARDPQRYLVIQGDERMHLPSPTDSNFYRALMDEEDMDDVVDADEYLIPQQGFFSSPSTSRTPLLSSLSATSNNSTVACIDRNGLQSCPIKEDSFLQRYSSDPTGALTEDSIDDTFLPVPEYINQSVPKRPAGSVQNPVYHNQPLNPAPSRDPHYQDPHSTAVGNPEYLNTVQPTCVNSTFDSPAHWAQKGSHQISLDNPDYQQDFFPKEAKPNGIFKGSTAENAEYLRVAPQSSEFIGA

[2] = biological target: MAPK14 (human) (UniProt Q16539); assay: Cell-Based Assay; details: a375
Sequence of MAPK14 (human) (Q16539 whole entry, looked up): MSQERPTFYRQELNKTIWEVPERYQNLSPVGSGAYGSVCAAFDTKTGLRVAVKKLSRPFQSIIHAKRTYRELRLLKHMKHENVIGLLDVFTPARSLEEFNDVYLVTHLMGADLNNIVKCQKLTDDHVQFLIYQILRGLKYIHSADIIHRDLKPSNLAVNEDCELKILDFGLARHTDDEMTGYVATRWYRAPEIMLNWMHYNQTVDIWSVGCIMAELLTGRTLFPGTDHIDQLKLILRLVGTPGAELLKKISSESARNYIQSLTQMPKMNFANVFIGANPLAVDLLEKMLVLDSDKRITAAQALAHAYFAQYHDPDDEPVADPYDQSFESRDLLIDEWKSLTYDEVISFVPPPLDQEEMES

[3] = biological target: EGFR (UniProt P00533); remark: listed apart in the source
[4] = biological target: EGFR (human) (UniProt P00533)
Sequence of EGFR (human) (P00533 whole entry, looked up): as the sequence (P00533 whole entry, looked up) above

[5] = biological target: EGFR (UniProt P00533); remark: listed apart in the source
[6] = biological target: EGFR (human) (UniProt P00533); details: a431
[7] = test system: MAPK14 (Drosophila); assay: p38 Kinase Inhibition; details: sf9
[8] = biological target: EGFR (human) (UniProt P00533); details: a549
[9] = biological target: CDK2 (UniProt P24941); assay: Enzyme Assay
[10] = biological target: CDK2 (UniProt P24941); assay: Enzyme Assay; remark: listed apart in the source
[11] = biological target: CDK2 (human) (UniProt P24941); assay: Enzyme Assay
[12] = biological target: CDK2 (human) (UniProt P24941); assay: Enzyme Assay; remark: listed apart in the source
[13] = biological target: EGFR (human) (UniProt P00533); details: a431; remark: listed apart in the source
[14] = biological target: MAPK14 (UniProt Q16539); assay: Cascade Assay for Inhibitors of the MAP Kinase Pathway
Sequence of MAPK14 (Q16539 whole entry, looked up): as the sequence (Q16539 whole entry, looked up) above

[15] = biological target: MAPK14 (human) (UniProt Q16539); assay: Cellular Inhibition of MAPK14 Kinase in A549 Cells
[16] = biological target: EGFR (UniProt P00533); details: balb/c 3t3
[17] = biological target: EGFR (UniProt P00533); remark: listed apart in the source
[18] = biological target: EGFR (human) (UniProt P00533); details: hn5
[19] = biological target: EGFR (mouse) (UniProt P00533); details: Swiss 3T3
[20] = biological target: MAPK14 (human) (UniProt Q16539); assay: p38-mediated TNF-alpha Inhibition (LPS-Stimulated PBMCs); details: pbmc
[21] = biological target: EGFR (UniProt P00533); remark: listed apart in the source
[22] = biological target: EGFR (mouse) (UniProt P00533); details: balb/mk
[23] = biological target: MAPK14 (UniProt Q16539); assay: p38-alpha Kinase Inhibition; details: concentration not given here
[24] = biological target: ROCK2 (UniProt O75116); assay: ROCK2 Kinase Inhibition; details: concentration not given here
Sequence of ROCK2 (O75116 whole entry, looked up): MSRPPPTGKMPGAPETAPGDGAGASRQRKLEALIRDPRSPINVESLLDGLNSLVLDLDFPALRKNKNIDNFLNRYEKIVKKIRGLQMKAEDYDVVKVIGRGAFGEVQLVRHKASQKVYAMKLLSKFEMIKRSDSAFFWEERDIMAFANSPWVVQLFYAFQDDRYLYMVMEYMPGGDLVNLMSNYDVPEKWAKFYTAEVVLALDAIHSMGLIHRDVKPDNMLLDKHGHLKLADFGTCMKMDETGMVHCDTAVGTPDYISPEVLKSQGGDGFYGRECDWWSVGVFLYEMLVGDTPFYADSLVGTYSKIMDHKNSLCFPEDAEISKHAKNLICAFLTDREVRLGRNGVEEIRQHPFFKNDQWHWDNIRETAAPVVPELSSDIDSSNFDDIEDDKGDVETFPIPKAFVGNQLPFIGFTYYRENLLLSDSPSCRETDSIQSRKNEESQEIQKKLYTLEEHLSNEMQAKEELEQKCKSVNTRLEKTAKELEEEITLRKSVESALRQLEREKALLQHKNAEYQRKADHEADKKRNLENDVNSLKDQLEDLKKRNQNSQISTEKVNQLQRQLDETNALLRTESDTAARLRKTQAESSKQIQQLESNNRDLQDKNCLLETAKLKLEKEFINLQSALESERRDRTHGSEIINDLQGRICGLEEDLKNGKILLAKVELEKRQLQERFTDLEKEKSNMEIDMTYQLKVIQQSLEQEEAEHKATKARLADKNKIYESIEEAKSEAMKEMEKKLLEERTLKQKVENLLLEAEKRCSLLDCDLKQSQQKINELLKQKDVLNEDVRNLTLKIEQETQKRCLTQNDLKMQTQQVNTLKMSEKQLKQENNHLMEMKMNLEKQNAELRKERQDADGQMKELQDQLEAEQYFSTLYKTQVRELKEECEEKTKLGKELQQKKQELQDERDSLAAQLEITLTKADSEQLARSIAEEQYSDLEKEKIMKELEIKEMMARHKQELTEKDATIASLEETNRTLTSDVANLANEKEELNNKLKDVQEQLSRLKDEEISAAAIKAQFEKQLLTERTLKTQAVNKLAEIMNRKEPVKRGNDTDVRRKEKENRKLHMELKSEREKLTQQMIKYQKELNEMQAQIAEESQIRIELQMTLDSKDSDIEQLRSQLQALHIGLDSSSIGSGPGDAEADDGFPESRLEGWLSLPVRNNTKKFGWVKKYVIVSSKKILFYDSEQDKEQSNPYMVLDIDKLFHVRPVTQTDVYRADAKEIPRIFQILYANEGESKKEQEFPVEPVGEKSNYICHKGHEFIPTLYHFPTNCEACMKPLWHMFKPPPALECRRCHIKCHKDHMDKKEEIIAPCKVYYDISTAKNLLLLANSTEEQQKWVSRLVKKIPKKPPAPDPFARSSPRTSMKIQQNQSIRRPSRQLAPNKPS

[25] = biological target: EGFR (human) (UniProt P00533); details: a431; remark: listed apart in the source
[26] = biological target: EGFR (murine) (UniProt P00533); details: nih3t3

IC50 [1]: 4 µM
Compound: COc1cc2ncnc(N(C)c3ccccc3)c2cc1OC

IC50 [2]: > 10 µM
Compound: CN(C)CCOc1ccc(-c2nc(-c3ccc4c(c3)CC/C4=N\O)c(-c3ccncc3)[nH]2)cc1

IC50 [3]: > 10 µM
Compound: COc1ccc2c(Nc3cccc(Br)c3)ncnc2c1OC

IC50 [4]: 0.104 µM
Compound: C=CC(=O)N1CCC[C@H](n2cnc3c(N)nc(Nc4ccc(OCCOC)cc4)nc32)C1

inhibition [5]: 0
Compound: O=C1NC(=O)C(c2cn(CCOCCO)c3ccccc23)=C1c1c[nH]c2ccccc12

IC50 [6]: 0.036 µM
Compound: CCOc1cc2ncc(C#N)c(Nc3ccc(OCc4ccccn4)c(Cl)c3)c2cc1NC(=O)/C=C/[C@@H]1C[C@@H](O)CN1C

IC50 [3]: 0.015 µM
Compound: Brc1cccc(Nc2ncnc3cc4c(cc23)OCO4)c1

IC50 [7]: 0.002 µM
Compound: Cc1cc(F)ccc1-c1nc(N(C(N)=O)c2c(Cl)cccc2Cl)ccc1CO

IC50 [8]: > 100 µM
Compound: COc1cc(O)c2c(=O)n(-c3cccc(C(=O)N4CCCCC4)c3)ccc2c1NC(=O)Nc1ccc(C(=O)N2CCN(C)CC2)cc1

IC50 [6]: 0.003 µM
Compound: CCOc1cc2ncc(C#N)c(Nc3ccc(OCc4ccccn4)c(Cl)c3)c2cc1NC(=O)/C=C/[C@@H]1CCCN1

IC50 [9]: 7.5 µM
IC50 [10]: 2.2 µM
IC50 [11]: 2.2 µM
IC50 [12]: 7.5 µM
Compound: O=C1Nc2ccccc2/C1=C1/Nc2ccccc2C1=O

IC50 [13]: 28.8 µM
Compound: O=C(Cc1ccc(F)cc1)Nc1cc(SC[C@@H](O)CO)cc([N+](=O)[O-])c1

IC50 [14]: > 3 µM
Compound: COc1ccc(CN(Cc2ccc(OC)cc2)S(=O)(=O)c2cc(C(=O)NOCC3CC3)c(Nc3ccc(I)cc3Cl)c(F)c2F)cc1

IC50 [1]: 0.05 µM
Compound: COc1cc2ncnc(Nc3ccccc3)c2cc1OC

IC50 [14]: > 3 µM
Compound: CN(Cc1cccnc1)S(=O)(=O)c1cc(C(=O)O)c(Nc2ccc(I)cc2Cl)c(F)c1F

IC50 [13]: > 50 µM
Compound: Cn1c(NCc2cccc(C(F)(F)F)c2)cc(=O)n(C)c1=O

IC50 [4]: 0.602 µM
Compound: C=CC(=O)N1CCC[C@H](n2cnc3c(N)nc(Nc4ccc(N5CCOCC5)cc4)nc32)C1

IC50 [15]: 0.69 µM
Compound: COC(=O)NC[C@H](C)Nc1nccc(-c2cn(C(C)C)nc2-c2cc(Cl)cc(NS(C)(=O)=O)c2F)n1

IC50 [16]: 0.3 µM
Compound: Clc1cccc(Nc2ncnc3c2C2CCCCC2N3)c1 (centres undefined)

inhibition [5]: 0
Compound: CNC(=O)[C@H](CCCCN)NC(=O)[C@H](CCCCN)NC(=O)[C@@H]1CCCN1C(=O)[C@H](CSCCOCCOCCn1cc(C2=C(c3c[nH]c4ccccc34)C(=O)NC2=O)c2ccccc21)NC(C)=O (Ac-C(X1)PKK-NHMe)

IC50 [17]: ≤ 260 µM
Compound: CCC(C)[C@H](NC(=O)[C@H](CCC(=O)O)NC(=O)[C@H](CCC(=O)O)NC(=O)C(Cc1ccc(CCC(=O)C(C)=O)cc1)NC(C)=O)C(=O)N[C@@H](CCC(=O)O)C(=O)O (some centres undefined) (Ac-[X1]EE[Ile(3ξ)]E-OH)

IC50 [15]: 2.2 µM
Compound: COC(=O)N[C@@H](C)CNc1nccc(-c2cn(C(C)C)nc2-c2cc(Cl)cc(NS(C)(=O)=O)c2F)n1

IC50 [18]: 130 µM
Compound: Oc1cc(O)c2nc(-c3ccc(O)c(O)c3)sc2c1

IC50 [4]: 0.35 µM
Compound: C=CC(=O)N1CCC[C@H](n2cnc3c(N)nc(Nc4ccc(N5CCCCC5)cc4)nc32)C1

IC50 [18]: 300 µM
Compound: Oc1ccc(-c2nc3c(O)cc(O)cc3s2)cc1

IC50 [19]: > 30 µM
Compound: Cc1nc2cc3nc(-c4ccccc4)cnc3cc2n1C

IC50 [6]: 0.008 µM
Compound: CCOc1cc2ncnc(Nc3ccc(F)c(Cl)c3)c2cc1NC(=O)/C=C/[C@H]1CCCN1C

IC50 [20]: 0.21 µM
Compound: Cc1ccccc1SC1=NN2CNC(=O)C(c3c(Cl)cccc3Cl)=C2C=C1

IC50 [7]: 0.027 µM
Compound: Cc1cc(F)ccc1-c1nc(N(C(N)=O)c2c(F)cccc2F)ccc1CO

IC50 [21]: 0.577 µM
Compound: FC(F)(F)c1cccc(Nc2ncnc3ccccc23)c1

IC50 [22]: > 50 µM
Compound: Clc1cccc(Nc2ncnc3[nH]c(-c4ccccc4)c(-c4ccccc4)c23)c1

IC50 [2]: > 10 µM
Compound: CCCS(=O)(=O)Nc1ccc(F)c(C(=O)c2c[nH]c3ncc(Cl)cc23)c1F

activity ([10]; concentration not given here): 42%
activity [23]: 99%
activity [24]: 89%
inhibition [5]: 0
Compound: CN(C)CCCn1cc(C2=C(c3c[nH]c4ccccc34)C(=O)NC2=O)c2ccccc21

Compound: CC(C)(C)c1cc(C=C(C#N)C#N)cc(C(C)(C)C)c1O
IC50 [25]: 0.1 µM

IC50 [16]: 0.1 µM
Compound: Clc1cccc(Nc2ncnc3[nH]c4ccccc4c23)c1

IC50 [26]: > 100 µM
Compound: O=C1Nc2ccccc2/C1=C/c1ccncc1

IC50 [18]: 130 µM
Compound: Oc1ccc(-c2nc3ccc(O)cc3s2)cc1

IC50 [7]: 0.056 µM
Compound: Cc1ccccc1-c1nc(N(C(N)=O)c2c(Cl)cccc2Cl)ccc1CO
